US11787839B2, “Targeting α2δ-1-bound glutamate receptors for treating diseases and disorders” (Board of Regents, The University of Texas System, priority 2017, dated 2023)

Columns and labels:
[1] = system: SNL rats; experiment: Withdrawal thresholds in spinal nerve ligation (SNL), sham and naive rats; assay type: in vivo, rat
Source text: Animal models of neuropathic pain: All surgical preparations and experimental protocols were approved by the Animal Care and Use Committee of the University of Texas MD Anderson Cancer Center and conformed to the National Institutes of Health guidelines for the ethical use of animals. Male Sprague-Dawley rats (8-10 weeks of age) were purchased from Harlan Laboratories (Indianapolis, Ind.). L5 and L6 spinal nerve ligation (SNL) were used as an experimental model of neuropathic pain (Cole et al., 2005). In brief, anesthesia was induced with 2-3% isoflurane, isolated the left L5-L6 spinal nerves and ligated them tightly with 6-0 silk sutures. The rats in the sham control group underwent the same surgical procedures except for the nerve ligation.
Intrathecal catheters were implanted in some SNL group rats during isoflurane-induced anesthesia 2-3 weeks after SNL surgery. Briefly, the anesthetized animal was placed on a stereotaxic frame, and a small incision was made at the back of its neck. Then, a small puncture was made in the atlanto-occipital membrane of the cisterna magna, and a PE-10 catheter (˜8 cm) was inserted with the caudal tip reaching the lumbar enlargement of the spinal cord (Luo et al., 2001; Patel et al., 2013). The rostral end of the catheter was exteriorized and closed the wound with sutures. The animals were allowed to recover for at least 4 days before the intrathecal injections were performed. Animals displaying signs of motor or neurological dysfunction were immediately killed with an intraperitoneal injection of phenobarbital (200 mg/kg) or by inhalation of CO2.
Behavioral assessments of nociception: To detect tactile allodynia, von Frey filaments were applied to the animals' left hindpaws (ipsilateral to the nerve injury). The rats or mice were placed individually in suspended chambers on a mesh floor. After an acclimation period of 30 min, a series of calibrated von Frey filaments were applied (Stoelting, Wood Dale, Ill.) perpendicularly to the plantar surface of the hindpaw with sufficient force to bend the filament for 6 s. Brisk withdrawal or paw flinching was considered a positive response. After a response, the filament of the next lower force was applied. In the absence of a response, the filament of the next greater force was applied. Using the up-down method, the tactile stimulus that produced a 50% likelihood of a withdrawal response was calculated (Fuller-Bicer et al., 2009).
To quantify the mechanical nociceptive threshold in the rats and mice (Patel et al., 2013; Dolphin et al., 2012), the paw pressure tests were conducted on the hindpaw with an analgesiometer (Ugo Basile, Varese, Italy). The device was activated by pressing a foot pedal, which triggered a motor that applied a constantly increasing force on a linear scale. […]

[2] = system: Cacna2d1 KO mice; experiment: Nerve injury-induced pain hypersensitivity in Cacna2d1 KO mice; assay type: in vivo, mouse
Method: Conventional α2δ-1 KO mice (C57BL/6 genetic background) were generated as described previously (Muller et al., 2010). Two breeding pairs of α2δ-1^+/− mice were purchased from Medical Research Council (Harwell Didcot, Oxfordshire, UK), and α2δ-I^−/− mice and α2δ-1^+/+ (wild-type) littermates were obtained by breeding the heterozygous mice. The spared nerve injury (SNI) procedure […] was performed on both male and female mice (10-11 weeks of age). Under a surgical microscope, the left common peroneal and tibial nerves were ligated and sectioned, leaving the sural nerve intact. The sham procedure consisted of the same surgery without nerve ligation and sectioning.
Behavioral assessments of nociception: To detect tactile allodynia, von Frey filaments were applied to the animals' left hindpaws (ipsilateral to the nerve injury). The rats or mice were placed individually in suspended chambers on a mesh floor. […] Using the up-down method, the tactile stimulus that produced a 50% likelihood of a withdrawal response was calculated (Fuller-Bicer et al., 2009).
To quantify the mechanical nociceptive threshold in the rats and mice (Patel et al., 2013; Dolphin et al., 2012), the paw pressure tests were conducted on the hindpaw with an analgesiometer (Ugo Basile, Varese, Italy). […]

[3] = molecular target: T1, α2δ-1 and NMDAR subunits in spinal cord synaptosomes (Rattus norvegicus, UniProt P35439+Q00959+Q00960); experiment: Protein levels in spinal cord synaptosomes of treated slices (SNL, sham); assay type: cell-based; details: SNL rats; slices treated 30 min
T1 construct: from tissue; host or cells: rat lumbar spinal cord slices (lamina II neurons) and synaptosomes made from them
Method: PSD-95, a known postsynaptic protein, was used as an internal control.
Spinal cord synaptosome preparation: The spinal cord slices were pooled from 2 rats and were homogenized using glass-Teflon homogenizer in 10 volumes of ice-cold HEPES-buffered sucrose (0.32 M sucrose, 1 mM EGTA, and 4 mM HEPES at pH 7.4) containing the protease inhibitor cocktail (Sigma-Aldrich). The homogenate was centrifuged at 1,000×g for 10 min at 4° C. to remove the nuclei and large debris. […] The synaptosomal pellet was lysed via hypo-osmotic shock in 9 volumes of ice-cold HEPES-buffer with the protease inhibitor cocktail for 30 min. The lysate was centrifuged at 25,000×g for 20 min at 4° C. to obtain the synaptosomal membrane fraction, which was then dissolved in sodium dodecyl sulfate sample buffer at a final concentration of 0.25 μg/μl for immunoblotting. […] The α2δ-1Tat peptide and scrambled control peptide were synthesized by Bio Basic Inc. (Marham, Ontario, Canada) and validated by using liquid chromatography and mass spectrometry.

[4] = molecular target: T2, NMDARs of hippocampal CA1 pyramidal neurons (Mus musculus, UniProt O08532+P35438); experiment: Puff NMDAR currents of hippocampal CA1 neurons, oxygen-glucose deprivation (OGD); assay type: cell-based; details: gabapentin 30 or 100 μM, 60 min
T2 construct: from tissue; host or cells: mouse brain slices (hippocampal CA1, hypothalamic PVN, brain tissue membrane extracts)
Method: Brain slice preparation and recording. The tissues containing the hippocampus were sliced sagittally (300 μm thick) using a vibratome. […] NMDAR currents of pyramidal neurons in the hippocampal CA1 region were recorded by puff application of 100 μM NMDA directly to the recorded neuron at a holding potential of −60 mV.

[5] = system: SHRs; experiment: PVN microinjection and recording of ABP and RSNA in SHRs; assay type: in vivo, rat; details: 50 pmol
Method: PVN microinjection and recording of renal sympathetic nerve activity: Rats were anaesthetized via i.p. administration of a mixture of α-chloralose (60 mg kg-1) and urethane (800 mg kg-1) and mechanically ventilated with trachea cannulation. The arterial blood pressure (ABP) was monitored via a catheter placed in the left femoral artery, and heart rate (HR) was extracted from the pulsatile pressure wave. A retroperitoneal incision was made, and a branch of the left renal postganglionic sympathetic nerve was isolated under a surgical microscope. The renal sympathetic nerve was cut distally to ensure that afferent activity was not recorded. The ABP, HR and renal sympathetic nerve activity (RSNA) were recorded using a 1401-PLUS analogue-to-digital converter and Spike2 system (Cambridge Electronic Design, Cambridge, UK). After the brain was exposed, a microinjection pipette (tip diameter 20-30 μm) was advanced into the PVN in accordance with the stereotactic co-ordinates: 1.6-2.0 mm caudal to the bregma, 0.5 mm lateral to the midline and 7.0-7.5 mm ventral to the dura. The microinjection was performed using a Nanoject II (Drummond Scientific Company) and monitored using a surgical microscope as described previously (Li & Pan, 2006, 2007; Qiao et al. 2017). […] At the end of each experiment, the electrical background noise was measured after the proximal end of renal nerve was crushed at the end of each experiment. To determine the location of the injection site and diffusion of the drugs in the PVN, 5% rhodamine-labelled fluorescent microspheres (0.04 μm; Molecular Probes) were included in the injection solution. Rats were excluded from the data analysis if the microinjections were misplaced outside the PVN.

T2 sequence (O08532 25-956 limits assumed, other chains not shown): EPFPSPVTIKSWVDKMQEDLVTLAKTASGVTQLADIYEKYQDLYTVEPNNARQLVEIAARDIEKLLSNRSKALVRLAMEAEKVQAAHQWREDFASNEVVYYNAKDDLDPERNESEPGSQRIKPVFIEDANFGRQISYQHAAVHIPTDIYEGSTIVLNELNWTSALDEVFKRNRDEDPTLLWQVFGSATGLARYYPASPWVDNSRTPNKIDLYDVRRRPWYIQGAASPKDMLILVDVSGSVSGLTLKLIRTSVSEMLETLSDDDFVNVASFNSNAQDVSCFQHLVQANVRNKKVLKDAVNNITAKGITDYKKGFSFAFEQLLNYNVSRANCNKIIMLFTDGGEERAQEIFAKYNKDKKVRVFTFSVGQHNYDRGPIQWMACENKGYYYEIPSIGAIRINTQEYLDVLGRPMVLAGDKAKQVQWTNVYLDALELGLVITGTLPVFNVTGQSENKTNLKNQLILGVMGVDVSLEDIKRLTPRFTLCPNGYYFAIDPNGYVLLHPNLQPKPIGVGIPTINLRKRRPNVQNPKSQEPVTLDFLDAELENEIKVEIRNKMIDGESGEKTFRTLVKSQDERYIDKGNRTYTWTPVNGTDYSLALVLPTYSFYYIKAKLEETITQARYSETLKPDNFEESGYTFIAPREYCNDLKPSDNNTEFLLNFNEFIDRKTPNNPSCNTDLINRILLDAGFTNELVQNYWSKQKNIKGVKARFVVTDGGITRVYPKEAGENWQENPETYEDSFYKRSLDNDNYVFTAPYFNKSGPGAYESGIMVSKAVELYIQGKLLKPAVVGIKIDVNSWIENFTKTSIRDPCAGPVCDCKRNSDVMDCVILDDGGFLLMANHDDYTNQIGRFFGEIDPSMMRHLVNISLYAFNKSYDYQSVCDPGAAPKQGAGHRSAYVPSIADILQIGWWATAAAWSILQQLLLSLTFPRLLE
T1 sequence (Q00959 20-1464 limits assumed, other chains not shown): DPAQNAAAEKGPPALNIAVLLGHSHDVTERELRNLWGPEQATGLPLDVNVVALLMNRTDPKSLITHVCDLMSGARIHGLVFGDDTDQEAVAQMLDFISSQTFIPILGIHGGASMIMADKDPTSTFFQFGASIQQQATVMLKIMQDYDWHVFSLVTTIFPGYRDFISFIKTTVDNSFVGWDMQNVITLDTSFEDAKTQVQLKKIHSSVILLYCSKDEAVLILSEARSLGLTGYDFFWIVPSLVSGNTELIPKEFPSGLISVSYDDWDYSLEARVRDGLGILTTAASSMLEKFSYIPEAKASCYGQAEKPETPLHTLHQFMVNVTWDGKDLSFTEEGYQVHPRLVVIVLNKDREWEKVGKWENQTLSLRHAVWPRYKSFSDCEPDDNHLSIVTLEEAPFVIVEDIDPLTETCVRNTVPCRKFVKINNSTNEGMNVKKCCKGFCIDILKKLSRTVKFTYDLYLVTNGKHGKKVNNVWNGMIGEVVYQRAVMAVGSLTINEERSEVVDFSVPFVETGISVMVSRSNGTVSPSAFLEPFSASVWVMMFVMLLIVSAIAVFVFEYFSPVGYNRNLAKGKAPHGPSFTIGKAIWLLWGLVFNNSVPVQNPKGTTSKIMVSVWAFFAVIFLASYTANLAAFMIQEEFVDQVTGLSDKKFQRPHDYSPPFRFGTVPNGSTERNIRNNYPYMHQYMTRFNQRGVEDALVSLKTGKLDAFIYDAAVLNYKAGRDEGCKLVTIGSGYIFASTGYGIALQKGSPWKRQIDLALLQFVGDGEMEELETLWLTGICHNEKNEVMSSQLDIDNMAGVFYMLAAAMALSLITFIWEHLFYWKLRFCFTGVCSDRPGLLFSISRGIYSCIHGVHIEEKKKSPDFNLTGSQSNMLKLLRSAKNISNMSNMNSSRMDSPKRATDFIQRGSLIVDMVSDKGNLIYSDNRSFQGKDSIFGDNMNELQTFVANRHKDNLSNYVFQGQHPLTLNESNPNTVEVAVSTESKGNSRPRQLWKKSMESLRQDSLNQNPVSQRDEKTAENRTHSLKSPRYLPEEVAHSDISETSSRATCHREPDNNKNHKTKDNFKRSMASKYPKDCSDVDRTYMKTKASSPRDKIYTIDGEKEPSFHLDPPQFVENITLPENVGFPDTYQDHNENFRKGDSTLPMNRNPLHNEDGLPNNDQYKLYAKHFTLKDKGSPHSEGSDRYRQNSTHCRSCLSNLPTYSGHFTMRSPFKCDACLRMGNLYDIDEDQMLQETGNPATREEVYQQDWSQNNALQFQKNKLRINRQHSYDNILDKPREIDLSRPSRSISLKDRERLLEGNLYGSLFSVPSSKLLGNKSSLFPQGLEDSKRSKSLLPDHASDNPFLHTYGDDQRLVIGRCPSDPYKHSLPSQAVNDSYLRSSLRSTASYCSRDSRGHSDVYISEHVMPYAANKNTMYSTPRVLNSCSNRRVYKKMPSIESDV
T1 sequence (Q00960 27-1482, other chains not shown): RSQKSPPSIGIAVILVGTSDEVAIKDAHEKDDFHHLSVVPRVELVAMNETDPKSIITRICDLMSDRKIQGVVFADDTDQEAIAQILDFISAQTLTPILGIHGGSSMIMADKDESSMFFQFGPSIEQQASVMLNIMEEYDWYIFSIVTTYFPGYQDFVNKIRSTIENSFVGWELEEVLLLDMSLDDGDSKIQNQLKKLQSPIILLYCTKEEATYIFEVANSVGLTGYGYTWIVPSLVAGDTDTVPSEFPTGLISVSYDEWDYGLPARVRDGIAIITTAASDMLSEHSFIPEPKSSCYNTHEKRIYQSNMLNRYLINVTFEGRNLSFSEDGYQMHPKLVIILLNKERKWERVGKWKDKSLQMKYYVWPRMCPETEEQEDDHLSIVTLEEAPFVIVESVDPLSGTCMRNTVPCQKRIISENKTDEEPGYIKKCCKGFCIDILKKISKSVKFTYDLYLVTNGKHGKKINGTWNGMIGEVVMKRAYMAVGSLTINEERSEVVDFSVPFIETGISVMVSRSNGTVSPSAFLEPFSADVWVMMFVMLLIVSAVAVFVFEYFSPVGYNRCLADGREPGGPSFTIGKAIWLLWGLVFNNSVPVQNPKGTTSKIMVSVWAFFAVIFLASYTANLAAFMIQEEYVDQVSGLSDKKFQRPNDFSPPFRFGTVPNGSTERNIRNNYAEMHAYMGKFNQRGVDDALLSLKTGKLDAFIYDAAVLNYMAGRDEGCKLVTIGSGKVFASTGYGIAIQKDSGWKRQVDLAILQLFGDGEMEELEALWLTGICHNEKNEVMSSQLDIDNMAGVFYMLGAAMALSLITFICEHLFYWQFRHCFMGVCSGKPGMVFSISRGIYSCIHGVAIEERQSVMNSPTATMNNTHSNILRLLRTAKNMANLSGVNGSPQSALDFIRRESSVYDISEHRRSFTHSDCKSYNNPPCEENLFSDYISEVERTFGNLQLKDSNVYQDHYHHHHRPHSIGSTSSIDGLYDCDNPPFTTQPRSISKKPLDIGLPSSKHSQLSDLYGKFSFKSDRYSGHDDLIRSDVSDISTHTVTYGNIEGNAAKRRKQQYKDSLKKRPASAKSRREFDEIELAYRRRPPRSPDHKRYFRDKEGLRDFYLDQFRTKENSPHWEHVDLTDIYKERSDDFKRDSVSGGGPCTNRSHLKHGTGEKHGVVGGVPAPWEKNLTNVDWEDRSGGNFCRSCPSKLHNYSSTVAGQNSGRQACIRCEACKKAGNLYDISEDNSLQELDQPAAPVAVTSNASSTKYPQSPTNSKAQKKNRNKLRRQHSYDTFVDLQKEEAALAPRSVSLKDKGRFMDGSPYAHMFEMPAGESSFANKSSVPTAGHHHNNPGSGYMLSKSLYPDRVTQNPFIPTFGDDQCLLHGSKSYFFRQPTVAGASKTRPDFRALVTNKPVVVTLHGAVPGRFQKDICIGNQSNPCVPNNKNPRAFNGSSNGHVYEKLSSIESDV

YGRKKRRQRRRVSGLNPSLWSIFGLQFILLWLVSGSRHYLW (a2d1 peptide) [α2δ-1Tat peptide, 30-amino-acid peptide mimicking the C-terminal domain of α2δ-1 fused to the cell-penetrating peptide Tat]
pain hypersensitivity of SNL rats ([1]; SNL rats, peptides intrathecal or systemic, siRNA intrathecal): large reduction
withdrawal thresholds in sham control rats ([1]; sham control rats): had no effect
nerve injury-induced pain hypersensitivity in Cacna2d1 KO mice [2]: had no effect
increased protein levels of GluN1, GluN2A, GluN2B and α2δ-1 in spinal cord synaptosomes [3]: largely normalized
OGD-induced increase in the puff NMDAR currents ([4]; 5 min OGD, peptides 1 μM): failed to increase
basal puff NMDAR currents of hippocampal CA1 pyramidal neurons ([4]; before OGD, peptide 1 μM): had no effect
ABP and RSNA ([5]; 50 nL bilaterally into the PVN): significantly decreased
duration of the effect on the mean ABP and RSNA ([5]; 50 nL into the PVN): more than 60 min
